Results as given in patent US12564596B2, “Agents and methods for modulating pathogen activity” (Griffith University, priority 2018, dated 2026).

Columns and labels:
[1] = system: HIV strains NL4-3 and NLAD8 adherence to CHO-CR3 cells; experiment: Fluorometric adherence assay, HIV to CHO cells; format: cell-based
Procedure: To test the ability of HIV to bind to CHO cells in a CR3 dependent fashion, and to test the ability of carbamazepine to block adherence of HIV to CHO-CR3 or CHO-neo cells, a fluorometric adherence assay was used, essentially as described by Jen et al (2013, supra). In this regard, CHO-neo or CHO-CR3 cells were seeded to a 96-well plate and allowed to grow to confluence. Fluorescently labelled HIV (10 ng of p24 HIV capsid protein equivalent of HIV in 100 μL of F12 culture media) were then used to challenge (2 h) CHO cells simultaneously with, or without, various concentrations of carbamazepine (as noted). Fluorescence (485/528 nm) intensity, corresponding to HIV cell adherence, was recorded using a Synergy HT Multi-mode Microplate Reader (BioTek Instruments, Winooski, VT USA). […] A Kruskal-Wallis k-sample analysis of variance was used to determine the statistical significance of the calculated mean of viral-cell adherence.
Having established the CR3-dependent binding of HIV to CHO cells, the inventors next examined the ability of carbamazepine to block the interaction of HIV strains NL4-3 and NLAD8 with the CR3 I-domain using fluorometric adherence assays. CR3-expressing (CHO-CR3) and non-expressing (CHO-neo) CHO cells, were seeded to microtiter plates, and HIV adherence was quantitated fluorometrically, as described by Jen et al. (2013, supra). […]

[2] = system: N. gonorrhoeae adherence to primary human cervical epithelial (PEX) cells; experiment: Fluorometric adherence assay, gonococci to PEX cells; format: cell-based, Neisseria gonorrhoeae
Text: Briefly, six N. gonorrhoeae strains were used in the experiments. These included the laboratory strain, MS11; the low-passage isolates, 1291, UT38097, LT38885, PID-26, and SK92-679; all of which were transformed with the green fluorescent protein (GFP) expression plasmid, pCmGFP (GenBank accession number FJ172221) Srikhanta et al (2009, PLoS Pathog. 5(4):e1000400) and, thus, expressed GFP Edwards et al (2000, Infect Immun 68(9):5354-63). […] The ability of carbamazepine to block the adherence of N. gonorrhoeae to human, primary cervical epithelial (PEX) cells was evaluated using a fluorometric adherence assay. Assays were performed essentially as described by Jen et al (2013, supra). In this regard, PEX cells were seeded to a 96-well plate and allowed to grow to confluence. Gonococci were then used to challenge (1 h) PEX cells simultaneously with, or without, various concentrations of carbamazepine ([…], 10 nM, 1 μM, or 100 μM, as noted) or 1% DMSO (vehicle control). Uninfected PEX cells treated with 1% DMSO served as a control for background fluorescence. Fluorescence (485/528 nm) intensity, corresponding to bacterial adherence, was recorded using a Synergy HT Multi-mode Microplate Reader (BioTek Instruments, Winooski, VT USA). The assay was performed in triplicate on 3 separate occasions. A Student's t-test was used to determine the statistical significance of the calculated mean of bacterial adherence.
(§1) The ability of the compounds, or negative controls to block adherence of N. gonorrhoeae strain MS11gfp to PEX cells, CHO-CR3, or CHO-neo cells was evaluated using a fluorometric microtiter plate assay. Assays were performed essentially as described by Jen et al. (2013, Plos Pathog 9(5): e1003377). In this regard, GFP-expressing gonococci were used to challenge (1 h) PEX or CHO cells immediately following compound addition. Fluorescence (485/528 nm) intensity, corresponding to bacterial adherence, was recorded using a Synergy HT Multi-mode Microplate Reader (BioTek Instruments, Winooski, VT USA). Blank wells, devoid of PEX or CHO cells, also were inoculated with bacteria and served as a control for non-specific binding. The assay was performed in triplicate on 3 separate occasions. A Student's t-test was used to determine the statistical significance of the calculated mean of bacterial adherence.

[3] = system: N. gonorrhoeae strain MS11gfp adherence to CHO-CR3 cells; experiment: Fluorometric adherence assay, gonococci to CHO cells; format: cell-based, Neisseria gonorrhoeae; conditions: 1 h post-challenge
Procedure: The ability of carbamazepine to block adherence of N. gonorrhoeae strain MS11gfp to CHO-neo or CHO-CR3 cells was evaluated using a fluorometric adherence assay. Assays were performed essentially as described by Jen et al (2013, PLoS Pathog. 9(5):e1003377). In this regard, CHO-neo or CHO-CR3 cells were seeded to a 96-well plate and allowed to grow to confluence. MS11gfp gonococci were then used to challenge (1 h) CHO cells simultaneously with, or without, various concentrations of carbamazepine (as noted). Fluorescence (485/528 nm) intensity, corresponding to bacterial adherence, was recorded using a Synergy HT Multi-mode Microplate Reader (BioTek Instruments, Winooski, VT USA). The assay was performed in triplicate on 3 separate occasions. A Kruskal-Wallis k-sample analysis of variance was used to determine the statistical significance of the calculated mean of bacterial adherence.
as §1

NC(=O)N1c2ccccc2C=Cc2ccccc21 [carbamazepine, 5H-dibenzo[b,f]azepine-5-carboxamide]
HIV adherence to CHO-CR3 cells compared with CHO-neo cells ([1]; 1 μM, 2 h post-challenge): not significantly different than that recorded for CHO-neo cells | HIV adherence to CHO-CR3, but not CHO-neo, cells with increasing concentrations ([1]; 2 h): dose-dependent decrease | gonococcal adherence to PEX cells with increasing concentrations ([2]; 1 h post-challenge): dose-dependent decrease | inhibition at 1 µM ([2]; Neisseria gonorrhoeae, 1 h, read-out: inhibition of adherence to PEX cells): > 95% | gonococcal adherence to CHO-CR3 cells compared with CHO-neo cells ([3]; 1 μM): not significantly different than that recorded for CHO-neo cells | gonococcal adherence to CHO-CR3, but not CHO-neo, cells with increasing concentrations [3]: dose-dependent decrease
